The record followed here is ChEMBL document CHEMBL3414497, “Overcoming mutagenicity and ion channel activity: optimization of selective spleen tyrosine kinase inhibitors” (J Med Chem, 2015).

Data set [1] is described as follows: in vivo. Particulars: rat, po.
The species named for data set [2] is Rattus norvegicus. As to conditions: in vivo, po.
The nature of data set [3]: in vivo. As to conditions: rat, plasma, po.
Data set [4] can be described thus: Plasma concentration in collagen-induced Lewis rat arthritic model at 10 mg/kg, po qd measured at 2 hrs. In kind it is ADME, organism-based. Set-up: dose 10 mg/kg, route oral.
The test system of data set [5] is Plasma. Nature of the data set: Plasma concentration in collagen-induced Lewis rat arthritic model at 1 mg/kg, po qd measured immediately post compound dosing. Type of data set: ADME, organism-based. Set-up: dose 1 mg/kg, route oral. Particulars: in vivo.
Data set [6] is described as follows: physchem. Particulars: octanol/buffer.
A short description of data set [7]: in vivo. Particulars: rat, po. This is another data set of the same source.
Data set [8] in a line: Plasma concentration in collagen-induced Lewis rat arthritic model at 3 mg/kg, po qd measured at 2 hrs. Also noted: dose 3 mg/kg, route oral. In kind it is ADME, organism-based.
The nature of data set [9]: Plasma concentration in collagen-induced Lewis rat arthritic model at 1 mg/kg, po qd measured at 8 hrs. Type of data set: ADME, organism-based. Set-up: dose 1 mg/kg, route oral.
Data set [10] in a line: physchem.
For data set [11], the system named is Plasma. The experiment in a line: Plasma concentration in collagen-induced Lewis rat arthritic model at 10 mg/kg, po qd measured immediately post compound dosing. In kind it is ADME, organism-based. Also noted: dose 10 mg/kg, route oral. As to conditions: in vivo.
Data set [12] in a line: Plasma concentration in collagen-induced Lewis rat arthritic model at 1 mg/kg, po qd measured at 4 hrs. Type of data set: ADME, organism-based. Set-up: dose 1 mg/kg, route oral.
The nature of data set [13]: Plasma concentration in collagen-induced Lewis rat arthritic model at 3 mg/kg, po qd measured at 4 hrs. In kind it is ADME, organism-based. Also noted: dose 3 mg/kg, route oral.
Data set [14] can be described thus: Plasma concentration in collagen-induced Lewis rat arthritic model at 10 mg/kg, po qd measured at 4 hrs. In kind it is ADME, organism-based. Set-up: dose 10 mg/kg, route oral.
The subject of data set [15] is Plasma. The experiment in a line: Plasma concentration in collagen-induced Lewis rat arthritic model at 3 mg/kg, po qd measured immediately post compound dosing. Type of data set: ADME, organism-based. Set-up: dose 3 mg/kg, route oral. Particulars: in vivo.
Data set [16] is described as follows: Plasma concentration in collagen-induced Lewis rat arthritic model at 10 mg/kg, po qd measured at 8 hrs. Set-up: dose 10 mg/kg, route oral. Type of data set: ADME, organism-based.
The nature of data set [17]: Plasma concentration in collagen-induced Lewis rat arthritic model at 1 mg/kg, po qd measured at 24 hrs. In kind it is ADME, organism-based. Also noted: dose 1 mg/kg, route oral.
The nature of data set [18]: Plasma concentration in collagen-induced Lewis rat arthritic model at 3 mg/kg, po qd measured at 8 hrs. Type of data set: ADME, organism-based. Also noted: dose 3 mg/kg, route oral.
The nature of data set [19]: Plasma concentration in collagen-induced Lewis rat arthritic model at 1 mg/kg, po qd measured at 2 hrs. Type of data set: ADME, organism-based. Also noted: dose 1 mg/kg, route oral.
The nature of data set [20]: Cmax in collagen-induced Lewis rat arthritic model at 3 mg/kg, po qd. Type of data set: ADME, organism-based. Set-up: dose 3 mg/kg, route oral. As to conditions: in vivo.
Data set [21] is described as follows: Plasma concentration in collagen-induced Lewis rat arthritic model at 10 mg/kg, po qd measured at 24 hrs. In kind it is ADME, organism-based. Set-up: dose 10 mg/kg, route oral.
Data set [22] in a line: Plasma concentration in collagen-induced Lewis rat arthritic model at 3 mg/kg, po qd measured at 24 hrs. Type of data set: ADME, organism-based. Also noted: dose 3 mg/kg, route oral.

Usually half-life stands for how long it takes for the measured level to halve. Usually CL/F stands for clearance divided by bioavailability, as obtained after extravascular dosing. Take `NC(=O)c1ncc(N[C@@H]2CCCC[C@@H]2N)nc1-c1cc2ccccc2[nH]1`: the half-life in data set [1] was 2.8 h. For the same compound, the CL free in data set [2] was 255 mL/min/kg. This compound also registered an apparent clearance CL/F in data set [3] of 44 mL/min/kg.
As a reminder, the logD is lipophilicity at a set pH, counting ionised and neutral species. As a reminder, the bioavailability is dose-corrected exposure relative to a reference, in per cent. Low values mean poor availability, high ones good availability. Broadly, the pKa is the negative logarithm of the acid dissociation constant. A lower pKa goes with a group that gives up its proton readily. As a reminder, the Cmax is the highest concentration seen after dosing. For the compound `Cc1cc(C)nc(Nc2cc(N[C@@H]3CCCC[C@@H]3N)cnc2C(N)=O)c1`, the results for the concentration at 2 h in [4], in data set [8] and in data set [19] were 200 nM, 60 nM and 40 nM, respectively. For the same compound, the concentration in [5] was found to be 5 nM; in [11], 10 nM; in data set [15], 7 nM. The compound also had a logD at 500 µM in data set [6] of 2.1. This compound returned a bioavailability in data set [7] of 19%. The concentration at 8 h turned out to be 90 nM in data set [9], 500 nM in [16] and 100 nM in data set [18]. The pKa at 100 µM in data set [10] was determined as 9. The concentration at 4 h in data set [12] is 100 nM; in [13], 200 nM; in [14] it was 500 nM. The compound further showed a half-life in data set [1] of 2.7 h. In addition, the concentration at 24 h came out at 5 nM in data set [17], 10 nM in [21] and 7 nM in [22]. The same compound displayed a CL free in data set [2] of 710 mL/min/kg. In data set [20], the Cmax stood at 200 nM. In addition, the CL/F in [3] is 33 mL/min/kg.
Compound `COc1cccc2[nH]c(-c3nc(N[C@@H]4CCOC[C@@H]4N)cnc3C(N)=O)cc12` had a bioavailability in data set [7] of 29%. Moreover, in [1], the half-life is 3.5 h. Besides, the CL free in data set [2] was 100 mL/min/kg. In addition, the CL/F in data set [3] stood at 25 mL/min/kg.
